According to US12024544B2, “CCN3 and CCN3 peptides and analogs thereof for therapeutic use” (Rosalind Franklin University of Medicine & Science, priority 2010, dated 2024):
Entries after “also recorded” stand apart in the source; their conditions may differ. Where a SMILES comes first, the peptide text is derived from it.

Tests used:
Type in all cases: cell-based
collagen type I promoter = collagen type I promoter (COL 1a2 promoter-luciferase) assay in TGF-beta stimulated mesangial cells
Protocol: In a second assay, the ability of the peptide to block the stimulation of collagen type I promoter by TGF-beta was tested. Collagen type I upregulation is a characteristic feature of fibrosis and is often used as an end point determination. TGF-beta is a well-established pro-fibrotic factor or cytokine that mesangial cells and other cells in the fibrotic response respond to by upregulating collagen and other matrix molecule production and accumulation. Several new anti-fibrotic therapies are under development that target the activity of TGF-beta. For the assays used in connection with the present invention, collagen promoter activity was measured as a rapid and early indicator of collagen-related fibrotic activity. The cells in culture were either unstimulated or stimulated by TGF-beta, both in the presence and absence of the selected peptides. If the peptides have inhibitory activity, the promoter activity under TGF-beta stimulation would be reduced to some value approaching the control, non-TGF-beta treated cells. The collagen promoter assay is based on the transfection of mesangial cells with a COL 1a2 promoter linked to luciferase. Therefore, when the promoter is stimulated it can be measured as luciferase units (Riser et al, CCN3 is a negative regulator of CCN2 and a novel endogenous inhibitor of the fibrotic pathway in an in vitro model of renal disease, American J Pathology, 174, 5, 2009). The level of collagen promoter activation (in arbitrary units), is based on a transfection efficiency control (CMV promoter activation).

[1] = tested on: human chronic myelogenous leukemia cells (K562); conditions: 10 nM
Protocol: Another potential use of the methods described in the invention is for the treatment of cancers. […] CCNp generated to mimic the effects of the function of CCN3 to prevent, reduce, stop or reverse progression of fibrosis/scarring may also serve to limit cancer growth. […] In untreated cells (Control) and those pre-incubated with quantities (approximately 10 nM) of a commercial recombinant CCN3 (rCCN3c), or full length CCN3 made in our laboratory, represented by several preparations rCCN3 8 (SEQ ID NO: 44), rCCN3 9 (SEQ ID NO: 44), rCCN3 10 (SEQ ID NO: 44), rCCN3 11 (SEQ ID NO: 44), or the peptides CCN p37 or CCN p38 were allowed to grow, then proliferation measured by the CellTiter-Glo® Luminescent Cell Viability Assay Control untreated cells, or cells (McCallum, L et al, CCN3: a key growth regulator in Chronic Myeloid Leukaemia, J Cell Commun Signal. 2009 June; 3(2): 115-124.). The latter is a homogeneous method of determining the number of viable cells in culture based on quantitation of the ATP present, an indicator of metabolically active cells. […] In comparison, CCNp37 produces 15-20% inhibition and CCNp38 approximately 40% inhibition of cell growth. Thus the activity was greater than the full-length CCN3.

MMP-1 = MMP-1 production by human skin fibroblasts; conditions: for reduction in PDGF stimulated MMP-1 production: 100 nM, FIG. 27
Excerpt: (§1) To test this we used a cell culture model of skin healing/scarring, which employed the use of primary human skin fibroblasts derived from foreskins collected post circumcision. These have been used extensively in the past to grown in culture and treated with agents that are known to drive wound healing and or scarring. We were also interested in a rare form of skin fibrosis/scarring that can lead to systemic disease and death known as nephrogenic systemic fibrosis (NSF). NSF is a complication of NMR diagnostics in renal impaired patients, where gadolinium (GAD), a heavy metal, is used as a contrast agent, but in some cases appears to deposit in skin. Although the mechanism for development of skin fibrosis and subsequent systemic disease is not yet completely understood, we have developed a model that has allowed elucidation of the probable pathway to skin fibrosis (Bhagavathula, N., M. K. Dame, M. DaSilva, W. Jenkins, M. N. Aslam, P. Perone and J. Varani (2010)). “Fibroblast response to gadolinium: role for platelet-derived growth factor receptor.” Invest Radiol 45(12): 769-777). This disease is characterized as a hyperproliferative disease, and in our model it was shown that PDGF produced by resident skin fibroblasts are stimulated by GAD to increase their production of PDGF which acts to induce proliferation and the increased production of MMPs, regulators of ECM breakdown and thus turnover, including the major MMP, MMP-1. At the same time tissue inhibitors of MMPs (TIMPs) are also affected by exposure to GAD. […] It appears that local fibroblasts then respond to this increased TGF-beta by increasing their production of ECM, including predominantly collagen type 1.
(§2) We examined the role of CCN3 and CCNp in fibroproliferative/fibrotic responses in human dermal fibroblasts exposed to Omniscan, one of the gadolinium-based contrast agents associated with development of nephrogenic systemic fibrosis. These studies were carried out as we have previously described (Riser, B. L., N. Bhagavathula, P. Perone, K. Garchow, Y. Xu, G. J. Fisher, F. Najmabadi, D. Attili and J. Varani (2012)). “Gadolinium-induced fibrosis is counter-regulated by CCN3 in human dermal fibroblasts: a model for potential treatment of nephrogenic systemic fibrosis.” J Cell Commun Signal 6(2): 97-105.). In our studies, human dermal fibroblasts were exposed to Omniscan; or to PDGF and TGF-β1 as controls. Cellular proliferation was assessed along with MMP-1 (by ELISA and gelatin zymography), TIMP-1 (by ELISA) and COL1 (by ELISA) in the absence and presence of CCN3 and CCNp. CCN3 and CCNp38 was added to cells at 10 nM concentration and at the same time as PDGF. In parallel, CCN3 production was assessed in control and Omniscan-treated cells. In most case the results shown (each bar) are the mean of 3-5 separate experiments, using fibroblasts from different donors. CCN3 was produced in our laboratory from the human embryonic kidney cell line (HEK-293) transfected with the complete human CCN3 gene, and producing an approximate 55 kDa, full-length CCN3 product. A second source of CCN3 was obtained from Pepro Tech Corporation (Rocky Hill, NJ) and is produced in a prokaryote cell line.
(§3) Next we created and tested for efficacy, additional CCNp including those with the cysteines intact (native sequence) from CCNp37 and CCNp38 and those that were modified by either shortening the peptide by 1 or 2 amino acids or lengthening by one amino acid. These agents were added to human skin fibroblasts in increasing concentrations from 1 nM to 100 nM and compared to the equal concentration of CCN3 (SEQ. ID. NO: 67). They were added just prior to the addition of either TGF-beta or PDGF, depending on the experiment.

TIMP-1 = TIMP-1 production by human skin fibroblasts
Excerpt: as §1, §2
Next we created and tested for efficacy, additional CCNp including those with the cysteines intact (native sequence) from CCNp37 and CCNp38 and those that were modified by either shortening the peptide by 1 or 2 amino acids or lengthening by one amino acid. […]

pro-collagen type 1 = pro-collagen type 1 production by human skin fibroblasts
Excerpt: To test this we used a cell culture model of skin healing/scarring, which employed the use of primary human skin fibroblasts derived from foreskins collected post circumcision. These have been used extensively in the past to grown in culture and treated with agents that are known to drive wound healing and or scarring. We were also interested in a rare form of skin fibrosis/scarring that can lead to systemic disease and death known as nephrogenic systemic fibrosis (NSF). NSF is a complication of NMR diagnostics in renal impaired patients, where gadolinium (GAD), a heavy metal, is used as a contrast agent, but in some cases appears to deposit in skin. Although the mechanism for development of skin fibrosis and subsequent systemic disease is not yet completely understood, we have developed a model that has allowed elucidation of the probable pathway to skin fibrosis (Bhagavathula, N., M. K. Dame, M. DaSilva, W. Jenkins, M. N. Aslam, P. Perone and J. Varani (2010)). “Fibroblast response to gadolinium: role for platelet-derived growth factor receptor.” Invest Radiol 45(12): 769-777). This disease is characterized as a hyperproliferative disease, and in our model it was shown that PDGF produced by resident skin fibroblasts are stimulated by GAD to increase their production of PDGF which acts to induce proliferation and the increased production of MMPs, regulators of ECM breakdown and thus turnover, including the major MMP, MMP-1. At the same time tissue inhibitors of MMPs (TIMPs) are also affected by exposure to GAD. […]
We examined the role of CCN3 and CCNp in fibroproliferative/fibrotic responses in human dermal fibroblasts exposed to Omniscan, one of the gadolinium-based contrast agents associated with development of nephrogenic systemic fibrosis. […] Cellular proliferation was assessed along with MMP-1 (by ELISA and gelatin zymography), TIMP-1 (by ELISA) and COL1 (by ELISA) in the absence and presence of CCN3 and CCNp. […] In parallel, CCN3 production was assessed in control and Omniscan-treated cells. […]

human skin fibroblasts = assay: human skin fibroblast proliferation
Excerpt: as §1, §2, §3

## CC(C)[C@H](NC(=O)CNC(=O)[C@H](CO)NC(=O)[C@@H](N)Cc1ccccc1)C(=O)N[C@@H](CO)C(=O)N[C@@H](CO)C(=O)N[C@@H](CC(=O)O)C(=O)NCC(=O)N[C@@H](CCCNC(=N)N)C(=O)N[C@@H](CO)C(=O)N[C@@H](CO)C(=O)N[C@H](C(=O)N1CCC[C@H]1C(=O)N[C@@H](Cc1c[nH]cn1)C(=O)O)[C@@H](C)O [CCNp37] (H-FSGVSSDGRSSTPH-OH)
Collagen type I promoter; added 24-hours prior to TGF-β
  inhibition of TGF-β-stimulated collagen promoter activity: able to produce some activity
Collagen type I promoter; added 24-hours prior to TGF-β, listed as Peptide 37
  inhibition of TGF-β-stimulated collagen promoter activity: also present (although to a lower level)
Collagen type I promoter; added just prior to TGF-β
  inhibition of TGF-β-stimulated collagen promoter activity: most effective
Collagen type I promoter; added just prior to TGF-β, listed as Peptide 37
  inhibition of TGF-β-stimulated collagen promoter activity: ability to totally block TGF-β-stimulated collagen promoter activity
Collagen type I promoter; peptide screen, FIG. 8
  inhibition of TGF-β-stimulated collagen promoter activity: reduce collagen promoter stimulation by TGF-β; also recorded: inhibition of TGF-beta stimulated collagen promoter activity; also recorded: more potent than CCNp38
[1]
  reduction in growth and/or viability (inhibition of cell growth): 15-20%

## CCNp37-15: Human or mouse analog with native cysteines replaced with serines and without PH on C-terminal end, SEQ. ID. No. 55 (FSGVSSDGRSST)
MMP-1; 1 nM to 100 nM, FIGS. 25-27
  block of PDGF stimulated MMP-1 production, comparison of modifications: less effective

## CCNp38-3: Human analog CCNp38 with native cysteines replaced with serines, SEQ. ID. No. 56 (SDRSADPSNQTGIS)
TIMP-1; PDGF, 10 nM, FIG. 19
  block of PDGF-induced increase in TIMP-1 production: neither CCNp38-3 (Seq. ID. No. 56) nor CCN3 (SEQ. ID. No. 67) is able to block or reduce the increase in TIMP-1 production
TIMP-1; TGF-beta (fails to stimulate), FIG. 20
  effect on TIMP-1 production with TGF-beta: neither CCNp38-3 nor CCN3 have an effect; also recorded: neither CCNp38-3 or CCN3 have an effect
MMP-1
  reduction in PDGF stimulated MMP-1 production: about 60%
MMP-1; PDGF, 10 nM, FIG. 17
  block of PDGF-induced increase in MMP-1 activity: works better than CCN3 protein; also recorded: works as well or better than CCN3 protein
MMP-1; TGF-beta (no stimulating effect), FIG. 18
  effect on MMP-1 with TGF-beta: no effect
pro-collagen type 1; 1-100 nM, FIGS. 31-33
  reduction of TGF-beta-stimulated pro-collagen type 1 production: as effective as CCN3
pro-collagen type 1; TGF-beta, 10 nM, FIG. 21
  block of TGF-beta-induced increase in pro-collagen production: completely block the increase
Human skin fibroblasts; PDGF, 10 nM, FIG. 15
  block of PDGF-stimulated fibroblast proliferation: equally well; also recorded: this stimulation is blocked
Human skin fibroblasts; TGF-beta (does not stimulate proliferation), FIG. 16
  effect on baseline cell growth: neither CCN3 (SEQ. ID. No. 67) nor CCNp38-3 (Seq. ID. No. 56) has an effect on baseline cell growth

## CCNp38-4: Human native CCNp38, SEQ. ID. No. 50 (CDRSADPSNQTGIC; listed as Homo sapiens)
MMP-1
  reduction in PDGF stimulated MMP-1 production: about 60%
Human skin fibroblasts; 1 nM to 100 nM, FIGS. 22-24
  inhibition of PDGF-stimulated proliferation, comparison of modifications: inhibited proliferation stimulated by PDGF, but was not as effective as the substituted form

## CC[C@H](C)[C@H](NC(=O)CNC(=O)[C@@H](NC(=O)[C@H](CCC(N)=O)NC(=O)[C@H](CC(N)=O)NC(=O)[C@H](CC(N)=O)NC(=O)[C@@H]1CCCN1C(=O)[C@H](CC(=O)O)NC(=O)[C@H](C)NC(=O)[C@H](CO)NC(=O)[C@H](CCCNC(=N)N)NC(=O)[C@H](CC(=O)O)NC(=O)[C@@H](N)CO)[C@@H](C)O)C(=O)N[C@@H](CO)C(=O)O [CCNp38] (H-SDRSADPNNQTGIS-OH)
Collagen type I promoter; 500 ng/mL
  inhibition of TGF-β-stimulated collagen promoter activity: able to inhibit collagen promoter activity
Collagen type I promoter; peptide screen, FIG. 8
  inhibition of TGF-β-stimulated collagen promoter activity: reduce collagen promoter stimulation by TGF-β
[1]
  reduction in growth and/or viability (inhibition of cell growth): approximately 40%
